pIC50: −log10 of the molar value.
biological target: human Cav2.2 (Homo sapiens, UniProt Q00975); test: Assessment of calcium channel activity using FLIPR (Ca2+ influx in IMR32 cells); assay type: cell-based; settings: IMR32 cells endogenously expressing human Cav2.2; 60 minute pre-incubation; 2 μM nifedipine; depolarized with 80 mM KCl, 5 mM CaCl2
Summary of the method: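 FLIPR measured Ca2+ influx triggered by 80 mM KCl depolarization together with a step to 5 mM external CaCl2. Percent inhibition relative to uninhibited activity was fitted sigmoidally for IC50.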

Sequence of human Cav2.2 (Q00975 whole entry): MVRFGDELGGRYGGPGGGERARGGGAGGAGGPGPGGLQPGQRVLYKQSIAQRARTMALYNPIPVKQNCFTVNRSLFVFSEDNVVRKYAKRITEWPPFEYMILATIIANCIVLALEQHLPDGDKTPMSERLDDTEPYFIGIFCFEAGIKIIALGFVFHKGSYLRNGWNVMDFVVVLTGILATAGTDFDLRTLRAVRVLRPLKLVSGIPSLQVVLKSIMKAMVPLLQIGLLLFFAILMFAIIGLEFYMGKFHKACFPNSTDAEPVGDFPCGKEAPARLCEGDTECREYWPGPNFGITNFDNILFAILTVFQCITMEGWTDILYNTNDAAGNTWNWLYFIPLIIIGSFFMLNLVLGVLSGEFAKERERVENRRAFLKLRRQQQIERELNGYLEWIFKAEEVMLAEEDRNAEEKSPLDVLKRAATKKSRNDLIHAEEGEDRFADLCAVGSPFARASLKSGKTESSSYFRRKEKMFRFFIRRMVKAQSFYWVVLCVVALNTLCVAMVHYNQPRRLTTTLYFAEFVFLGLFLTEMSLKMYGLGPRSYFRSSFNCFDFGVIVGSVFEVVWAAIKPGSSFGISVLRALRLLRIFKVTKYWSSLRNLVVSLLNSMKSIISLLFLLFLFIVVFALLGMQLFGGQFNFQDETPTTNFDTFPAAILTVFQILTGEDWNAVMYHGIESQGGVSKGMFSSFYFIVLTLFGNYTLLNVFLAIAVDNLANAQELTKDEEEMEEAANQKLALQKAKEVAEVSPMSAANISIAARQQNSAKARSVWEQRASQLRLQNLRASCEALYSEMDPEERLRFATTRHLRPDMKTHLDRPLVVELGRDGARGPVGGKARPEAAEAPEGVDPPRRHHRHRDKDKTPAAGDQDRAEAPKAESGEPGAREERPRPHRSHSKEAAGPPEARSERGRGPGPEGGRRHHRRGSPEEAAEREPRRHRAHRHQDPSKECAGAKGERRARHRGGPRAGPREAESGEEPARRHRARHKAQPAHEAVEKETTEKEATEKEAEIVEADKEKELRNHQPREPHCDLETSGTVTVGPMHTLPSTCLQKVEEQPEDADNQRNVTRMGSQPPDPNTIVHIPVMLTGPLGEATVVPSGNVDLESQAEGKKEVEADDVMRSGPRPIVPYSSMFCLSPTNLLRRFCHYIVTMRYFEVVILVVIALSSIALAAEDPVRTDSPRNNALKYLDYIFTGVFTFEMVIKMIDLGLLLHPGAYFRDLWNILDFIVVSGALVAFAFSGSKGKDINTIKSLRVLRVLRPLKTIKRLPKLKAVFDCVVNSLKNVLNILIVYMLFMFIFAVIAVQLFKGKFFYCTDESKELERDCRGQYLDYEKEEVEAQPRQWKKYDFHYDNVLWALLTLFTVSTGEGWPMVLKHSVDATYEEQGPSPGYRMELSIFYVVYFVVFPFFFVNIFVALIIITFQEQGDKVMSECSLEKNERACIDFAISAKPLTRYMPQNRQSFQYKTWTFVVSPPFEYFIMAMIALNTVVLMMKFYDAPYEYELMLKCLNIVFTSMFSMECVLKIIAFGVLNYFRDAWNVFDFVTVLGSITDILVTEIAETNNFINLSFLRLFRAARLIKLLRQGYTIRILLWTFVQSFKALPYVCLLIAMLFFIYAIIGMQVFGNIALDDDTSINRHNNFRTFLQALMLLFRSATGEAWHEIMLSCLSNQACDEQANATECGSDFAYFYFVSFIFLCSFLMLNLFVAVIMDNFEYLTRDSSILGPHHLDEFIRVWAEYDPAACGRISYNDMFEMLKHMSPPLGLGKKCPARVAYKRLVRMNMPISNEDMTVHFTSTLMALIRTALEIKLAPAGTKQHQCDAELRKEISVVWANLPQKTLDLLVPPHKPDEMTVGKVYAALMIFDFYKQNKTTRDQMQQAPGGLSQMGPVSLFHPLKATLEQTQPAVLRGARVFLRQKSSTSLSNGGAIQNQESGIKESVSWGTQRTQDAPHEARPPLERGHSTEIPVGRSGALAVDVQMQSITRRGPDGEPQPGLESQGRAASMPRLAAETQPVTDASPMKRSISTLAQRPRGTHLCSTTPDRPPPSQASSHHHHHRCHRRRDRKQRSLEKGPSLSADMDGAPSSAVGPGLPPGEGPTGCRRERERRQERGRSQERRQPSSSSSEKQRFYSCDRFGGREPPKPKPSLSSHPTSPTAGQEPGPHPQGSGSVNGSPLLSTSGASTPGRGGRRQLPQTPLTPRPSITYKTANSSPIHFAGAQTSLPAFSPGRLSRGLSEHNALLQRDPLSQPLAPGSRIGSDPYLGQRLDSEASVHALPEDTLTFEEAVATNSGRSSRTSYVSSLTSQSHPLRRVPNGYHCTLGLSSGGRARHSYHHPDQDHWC
Sequence of human Cav2.2 (P54289 25-951 partner limits assumed): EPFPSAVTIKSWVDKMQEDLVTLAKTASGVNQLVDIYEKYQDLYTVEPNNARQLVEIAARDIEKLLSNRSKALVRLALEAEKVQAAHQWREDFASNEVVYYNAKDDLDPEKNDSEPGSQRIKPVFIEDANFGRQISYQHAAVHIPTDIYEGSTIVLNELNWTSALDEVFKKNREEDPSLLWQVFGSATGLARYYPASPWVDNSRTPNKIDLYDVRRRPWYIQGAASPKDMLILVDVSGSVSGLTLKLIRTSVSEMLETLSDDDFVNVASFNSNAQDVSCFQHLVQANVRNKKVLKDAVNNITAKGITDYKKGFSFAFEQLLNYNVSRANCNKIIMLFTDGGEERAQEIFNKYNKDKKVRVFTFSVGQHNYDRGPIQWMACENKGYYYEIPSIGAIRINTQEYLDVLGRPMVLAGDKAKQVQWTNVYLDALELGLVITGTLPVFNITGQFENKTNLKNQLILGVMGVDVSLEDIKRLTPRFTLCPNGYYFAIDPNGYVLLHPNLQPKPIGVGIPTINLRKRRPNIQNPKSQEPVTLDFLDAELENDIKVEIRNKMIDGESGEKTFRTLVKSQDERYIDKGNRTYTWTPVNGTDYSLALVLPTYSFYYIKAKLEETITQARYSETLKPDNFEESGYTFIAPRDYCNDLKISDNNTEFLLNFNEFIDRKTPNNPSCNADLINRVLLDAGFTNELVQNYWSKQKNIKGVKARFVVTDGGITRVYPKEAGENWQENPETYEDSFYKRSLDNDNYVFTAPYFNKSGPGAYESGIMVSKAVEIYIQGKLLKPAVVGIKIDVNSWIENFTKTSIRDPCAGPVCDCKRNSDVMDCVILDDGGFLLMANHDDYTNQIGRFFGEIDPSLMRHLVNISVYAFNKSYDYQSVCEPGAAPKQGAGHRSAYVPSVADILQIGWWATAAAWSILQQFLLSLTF
Sequence of human Cav2.2 (P54289 952-1103 partner limits assumed): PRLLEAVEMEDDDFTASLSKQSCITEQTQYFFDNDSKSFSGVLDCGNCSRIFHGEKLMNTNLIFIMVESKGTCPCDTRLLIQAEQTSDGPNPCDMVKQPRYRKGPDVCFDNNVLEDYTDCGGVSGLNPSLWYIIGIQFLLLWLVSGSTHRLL
Sequence of human Cav2.2 (P54284 whole entry partner): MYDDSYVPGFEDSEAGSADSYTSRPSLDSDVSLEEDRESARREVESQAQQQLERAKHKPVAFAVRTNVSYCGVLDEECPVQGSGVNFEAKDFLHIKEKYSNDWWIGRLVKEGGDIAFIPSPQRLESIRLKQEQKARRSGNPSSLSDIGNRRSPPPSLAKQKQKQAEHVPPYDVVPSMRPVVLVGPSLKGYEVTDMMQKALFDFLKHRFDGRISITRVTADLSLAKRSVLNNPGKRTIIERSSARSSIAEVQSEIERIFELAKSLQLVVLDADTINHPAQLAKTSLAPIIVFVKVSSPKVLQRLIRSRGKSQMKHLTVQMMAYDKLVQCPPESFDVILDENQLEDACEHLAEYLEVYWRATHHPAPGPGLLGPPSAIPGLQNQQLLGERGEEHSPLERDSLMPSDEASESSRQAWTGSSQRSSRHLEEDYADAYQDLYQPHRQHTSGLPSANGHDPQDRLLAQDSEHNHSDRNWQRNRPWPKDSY

Compound	pIC50
O=C(CN1CCCC(c2ccccc2)(c2ccccc2)C1=O)N1CCC(c2ccc(C(F)(F)F)cc2)CC1 [Example 245, 1-(2-oxo-2-{4-[4-(trifluoromethyl)phenyl]piperidin-1-yl}ethyl)-3,3-diphenylpiperidin-2-one]	5.35
COc1cc(CN2CCN(CCCN3CCC(c4ccc(F)cc4)(c4ccc(F)cc4)C3=O)CC2)cc(OC)c1OC [Example 110, 3,3-bis(4-fluorophenyl)-1-{3-[4-(3,4,5-trimethoxybenzyl)piperazin-1-yl]propyl}pyrrolidin-2-one]	5.83
O=C1N(CCN2CCN(c3cccc(C(F)(F)F)c3)CC2)CCC1(c1ccc(F)cc1)c1ccc(F)cc1 [Example 111, 3,3-bis(4-fluorophenyl)-1-(2-{4-[3-(trifluoromethyl)phenyl]piperazin-1-yl}ethyl)pyrrolidin-2-one]	5.40
O=C(CN1CCC(c2ccccc2)(c2ccccc2)C1=O)NC1Cc2ccccc2C1 [Example 22, N-2,3-dihydro-1H-inden-2-yl-2-(2-oxo-3,3-diphenylpyrrolidin-1-yl)acetamide]	5.40
O=C(CN1CCCC(c2ccccc2)(c2ccccc2)C1=O)N1CCC(c2cccc(C(F)(F)F)c2)CC1 [Example 243, 1-(2-oxo-2-{4-[3-(trifluoromethyl)phenyl]piperidin-1-yl}ethyl)-3,3-diphenylpiperidin-2-one]	5.36
O=C(CN1CCCC(c2ccccc2)C1=O)N1Cc2ccc(F)cc2C1 (stereo not drawn) [Example 95, 1-[2-(5-fluoro-1,3-dihydro-2H-isoindol-2-yl)-2-oxoethyl]-3-phenylpiperidin-2-one]	4.46
O=C(CN1CCC(c2ccc(F)cc2)(c2ccc(F)cc2)C1=O)N1CCC(C(O)(c2ccc(F)cc2)c2ccc(F)cc2)CC1 [Example 271, 1-(2-{4-[bis(4-fluorophenyl)(hydroxy)methyl]piperidin-1-yl}-2-oxoethyl)-3,3-bis(4-fluorophenyl)pyrrolidin-2-one]	5.59
O=C1N(Cc2nc(-c3cncc(C(F)(F)F)c3)no2)CCC1(c1ccccc1)c1ccccc1 [Example 219, 3,3-diphenyl-1-({3-[5-(trifluoromethyl)pyridin-3-yl]-1,2,4-oxadiazol-5-yl}methyl)pyrrolidin-2-one]	5.53
N-(1-benzhydryl-3-methylpyrrolidin-3-yl)-2-(2-oxo-3,3-diphenylpiperidin-1-yl)acetamide [Example 86]	5.66
COc1ccc(C2(c3ccc(OC)cc3)CCCN(CCCN(C)CCc3cccc(OC)c3)C2=O)cc1 [Example 125, 3,3-bis(4-methoxyphenyl)-1-{3-[[2-(3-methoxyphenyl)ethyl](methyl)amino]propyl}piperidin-2-one]	5.77
O=C1C(c2ccc(F)cc2)CCN1Cc1nc(-c2ccc(C(F)(F)F)nc2)no1 (stereo not drawn) [Example 238, 3-(4-fluorophenyl)-1-({3-[6-(trifluoromethyl)pyridin-3-yl]-1,2,4-oxadiazol-5-yl}methyl)pyrrolidin-2-one]	4.91
O=C(CN1CCCC(c2ccccc2)(c2ccccc2)C1=O)N1CCc2ccc(C(F)(F)F)cc2C1 [Example 261, 1-{2-oxo-2-[7-(trifluoromethyl)-3,4-dihydroisoquinolin-2(1H)-yl]ethyl}-3,3-diphenylpiperidin-2-one]	5.35
O=C(CN1CCCC(c2ccccc2)(c2ccccc2)C1=O)N1CCCC1c1ccc(F)cc1 (stereo not drawn) [Example 73, 1-{2-[2-(4-fluorophenyl)pyrrolidin-1-yl]-2-oxoethyl}-3,3-diphenylpiperidin-2-one]	5.46
O=C(CN1CCC(c2ccccc2)(c2ccccc2)C1=O)N1CCNC(Cc2ccccc2)C1 (stereo not drawn) [Example 18, 1-[2-(3-benzylpiperazin-1-yl)-2-oxoethyl]-3,3-diphenylpyrrolidin-2-one]	5.58
COc1ccc(CCN(C)CCN2CCCC(c3ccccc3)(c3ccccc3)C2=O)cc1OC [Example 118, 1-{2-[[2-(3,4-dimethoxyphenyl)ethyl](methyl)amino]ethyl}-3,3-diphenylpiperidin-2-one]	5.61
O=C(CN1CCCC(c2ccccc2)(c2ccccc2)C1=O)N1CCN(Cc2ccc(F)c(C(F)(F)F)c2)CC1 [Example 184, 1-(2-{4-[4-fluoro-3-(trifluoromethyl)benzyl]piperazin-1-yl}-2-oxoethyl)-3,3-diphenylpiperidin-2-one]	5.90
O=C(CN1CCC(c2ccccc2)(c2ccccc2)C1=O)N1CCN(c2ccc(F)cc2)CC1 [Example 54, 1-{2-[4-(4-fluorophenyl)piperazin-1-yl]-2-oxoethyl}-3,3-diphenylpyrrolidin-2-one]	5.59
O=C(CN1CCC(c2ccccc2)(c2ccccc2)C1=O)NC1CCCc2ccccc21 (stereo not drawn) [Example 27, 2-(2-oxo-3,3-diphenylpyrrolidin-1-yl)-N-1,2,3,4-tetrahydronaphthalen-1-ylacetamide]	5.52
COc1cc(OC)cc(OCCCN(C)CCN2CCC(c3ccc(F)cc3)(c3ccc(F)cc3)C2=O)c1 [Example 105, 1-{2-[[3-(3,5-dimethoxyphenoxy)propyl](methyl)amino]ethyl}-3,3-bis(4-fluorophenyl)pyrrolidin-2-one]	5.78
O=C(CN1CCC(c2ccc(C(F)(F)F)cc2)C1=O)N1Cc2ccc(C(F)(F)F)cc2C1 (stereo not drawn) [Example 267, 1-{2-oxo-2-[5-(trifluoromethyl)-1,3-dihydro-2H-isoindol-2-yl]ethyl}-3-[4-(trifluoromethyl)phenyl]pyrrolidin-2-one]	5.13

Now from value to compound:

pIC50	Compound
6.00	O=C(CN1CCC(c2ccccc2)(c2ccccc2)C1=O)N1CCN(C(c2ccccc2)c2ccc(Cl)cc2)CC1 (stereo not drawn) [Example 47, 1-(2-{4-[(4-chlorophenyl)(phenyl)methyl]piperazin-1-yl}-2-oxoethyl)-3,3-diphenylpyrrolidin-2-one]
5.52	O=C(CN1CCCC(c2ccccc2)(c2ccccc2)C1=O)N1CCC(Oc2ccc(F)c(F)c2)CC1 [Example 160, 1-{2-[4-(3,4-difluorophenoxy)piperidin-1-yl]-2-oxoethyl}-3,3-diphenylpiperidin-2-one]
5.17	O=C(CN1CCC(c2ccc(F)cc2)(c2ccc(F)cc2)C1=O)Nc1ccc(C(F)(F)F)cc1 [Example 218, 2-[3,3-bis(4-fluorophenyl)-2-oxopyrrolidin-1-yl]-N-[4-(trifluoromethyl)phenyl]acetamide]
6.00	O=C(CN1CCC(c2ccccc2)(c2ccccc2)C1=O)NCCC(c1ccccc1)c1ccccc1 [Example 13, N-(3,3-diphenylpropyl)-2-(2-oxo-3,3-diphenylpyrrolidin-1-yl)acetamide]
5.81	O=C(CN1CCC(c2ccccc2)(c2ccccc2)C1=O)N1CCC(NCC(c2ccccc2)c2ccccc2)CC1 [Example 52, 1-(2-{4-[(2,2-diphenylethyl)amino]piperidin-1-yl}-2-oxoethyl)-3,3-diphenylpyrrolidin-2-one]
5.28	O=C(CN1CCC(c2ccc(Cl)c(Cl)c2)C1=O)N1Cc2ccc(F)cc2C1 (stereo not drawn) [Example 270, 3-(3,4-dichlorophenyl)-1-[2-(5-fluoro-1,3-dihydro-2H-isoindol-2-yl)-2-oxoethyl]pyrrolidin-2-one]
5.80	O=C1N(Cc2nc(CCc3ccc(Cl)cc3)no2)CCCC1(c1ccccc1)c1ccccc1 [Example 213, 1-({3-[2-(4-chlorophenyl)ethyl]-1,2,4-oxadiazol-5-yl}methyl)-3,3-diphenylpiperidin-2-one]
5.81	O=C1N(CCN2CCN(c3cccc(C(F)(F)F)c3)CC2)CCCC1(c1ccccc1)c1ccccc1 [Example 141, 3,3-diphenyl-1-(2-{4-[3-(trifluoromethyl)phenyl]piperazin-1-yl}ethyl)piperidin-2-one]
5.00	O=C(CN1CCCC(c2ccccc2)C1=O)NC1(c2ccc(F)cc2)CCC1 (stereo not drawn) [Example 97, N-[1-(4-fluorophenyl)cyclobutyl]-2-(2-oxo-3-phenylpiperidin-1-yl)acetamide]
5.24	O=C(CN1CCC(c2ccccc2)(c2ccccc2)C1=O)NCc1ccccc1 [Example 6, N-benzyl-2-(2-oxo-3,3-diphenylpyrrolidin-1-yl)acetamide]
5.25	O=C1N(Cc2nc(-c3cccnc3)no2)CCC1(c1ccccc1)c1ccccc1 [Example 221, 3,3-diphenyl-1-[(3-pyridin-3-yl-1,2,4-oxadiazol-5-yl)methyl]pyrrolidin-2-one]
5.00	O=C(CN1CCC(c2ccc(F)cc2)C1=O)N1CCc2ccc(F)cc2C1 (stereo not drawn) [Example 255, 1-[2-(7-fluoro-3,4-dihydroisoquinolin-2(1H)-yl)-2-oxoethyl]-3-(4-fluorophenyl)pyrrolidin-2-one]
5.16	O=C1N(S(=O)(=O)c2ccccc2C(F)(F)F)CCC1(c1ccccc1)c1ccccc1 [Example 148, 3,3-diphenyl-1-{[2-(trifluoromethyl)phenyl]sulfonyl}pyrrolidin-2-one]
5.86	O=C(CN1CCCC(c2ccccc2)(c2ccccc2)C1=O)N[C@@H]1CCN(Cc2cccc(C(F)(F)F)c2)C1 [Example 186, 2-(2-oxo-3,3-diphenylpiperidin-1-yl)-N-{(3R)-1-[3-(trifluoromethyl)benzyl]pyrrolidin-3-yl}acetamide]
5.00	COc1ccc(C2(c3ccc(OC)cc3)CCN(CCNC(=O)c3ccccc3)C2=O)cc1 [Example 112, N-{2-[3,3-bis(4-methoxyphenyl)-2-oxopyrrolidin-1-yl]ethyl}benzamide]
5.91	O=C(CN1CCCC(c2ccccc2)(c2ccccc2)C1=O)N1CCN(C(c2ccccc2)c2ccccc2)C(=O)C1 [Example 83, 1-benzhydryl-4-[(2-oxo-3,3-diphenylpiperidin-1-yl)acetyl]piperazin-2-one]
